We go through 2 compounds from EP2729445B1, “CYCLIC AMINE DERIVATIVES AS EP4 RECEPTOR ANTAGONISTS” (Rottapharm Biotech S.r.l., priority 2011, dated 2013).

For data set [1], the target named is T1, hEP4 receptors (Homo sapiens, UniProt P35408).
T1 construct: membrane fraction used
The experiment in a line: [3H]-Prostaglandin E2 membrane binding assay. The settings on record: read-out: Binding pKi (converted). As for the experimental part: (§1) The cDNA clone of human EP4 receptor (NM_000958.2) was obtained from InvitrogenTM: Ultimate™ ORF Clone Collection - Clone ID IOH46525. The coding sequence was subcloned in expression vector pcDNATM6.2/V5-DEST by Gateway technology (InvitrogenTM). Human embryonic kidney cells (HEK-293) were stably transfected with expression vector for human EP4 receptor in according to the method described in FuGENE®6 Transfection Reagent's manual (Roche Applied Science®).
(§2) The EP4 transfected cells were grown in Dulbecco's modified Eagle's medium containing 10% fetal bovine serum and 10 µg/ml Blasticidin S HCl (selection medium) at 37°C in a humidified atmosphere of 5% CO2 in air. For the membrane preparation, cells in flask were harvested by hypotonical/mechanical lysis with chilled (4°C) TE buffer (5mM TRIS, 5mM ethylenediamine tetra-acetic acid (EDTA), pH 7.4). Cells were detached and lysed with 10ml of hypotonic lysis buffer and by scraping. The cell lysate was vortexed for 30 sec and centrifuged at 40000x g at 4°C for 22min.
The membrane pellet was resuspended in the same buffer (5mM TRIS, 5mM ethylenediamine tetra-acetic acid (EDTA), pH 7.4), and protein concentration was determined by Bradford method (Bio-Bad® assay). This membrane preparation was stored at -80°C freezer until use for binding assay. ([^3H]-PGE2) membranes binding assays toward hEP4 receptors (human EP4/HEK293 transfectant, see above) and hEP2 receptors (human EP2/HEK293 transfectant, purchased from PerkinElmer Inc) were performed in 10 mM MES-KOH buffer pH6, containing 10 mM MgCl2 and 1 mM CaCl2 for EP4 binding assay or 50 mM Tris-Cl, BSA 0.5% for EP2 binding assay (according to supplier indication) . Ten microgram of protein from membrane fractions were incubated in a total volume of 0.1ml (EP4) or 0.2ml (EP2) with 1nM (EP4) or 3nM (EP2) [^3H]-PGE2 (PerkinElmer Inc, 171Ci/mmol). In both assays to determine the total binding or non specific binding, 1% DMSO or 1µM prostaglandin E2 (EP4) or 100 µM (EP2) were added to reaction mixtures, respectively. Incubation was conducted in a polypropylene 96 multiwell for 90 min (EP4) or 60 min (EP2) at room temperature prior to separation of the bound and free radioligand by vacuum manifold rapid filtration on glass fiber filters (Unifilter GFB96, PerkinElmer Inc) pre-soaked in 0.3% polyethyleneimine. Filters were washed with ice cold buffer pH 7.4 (50mM HEPES, NaCl 500mM, BSA 0.1% for EP4 binding assay or 50mM Tris-Cl for EP2 binding assays) and the residual [^3H]-PGE2 binding determined by solid scintillation counter (TopCount , PerkinElmer Inc).
The affinity (Ki) of each compound was calculated according to the Cheng-Prousoff equation: Ki = IC50/(1+([C]/Kd)). Results were expressed as pKi (- log10 Ki (M)

Data set [2] concerns the target T1, hEP4 receptors. The experiment in a line: cAMP assay (AlphaScreen) on human EP4 membrane of transfected cells, antagonism of PGE2. The data set is classed as biochemical. To be noted: HEK293 cell membrane stimulated with PGE2 3nM; read-out: functional IC50. As for the experimental part: as §1, §2
The assay is based on the competition between endogenous cAMP and exogenously added biotinylated cAMP. The capture of cAMP is achieved by using a specific antibody conjugated to Donor beads. Cell membranes prepared as described above, were resuspended in 1 ml stimulation buffer (HBSS 1X + BSA 0.1% + IBMX 0.5mM + HEPES 5mM + MgCl2 10mM + GTP 1 nM + GDP 10µM + ATP 100µM - pH 7.4). Cell membranes were dispensed into white 384-well microplates at final concentration of 1µg/well and used for the determination of cAMP with the alphascreen cAMP functional assay (EnVision - PerkinElmer). Cell membrane/anti-cAMP Acceptor beads mix (5 µl) and a mixture of analysed compounds (dissolved in 100% DMSO to a final maximal concentration of 0.01% DMSO)/PGE2 (5 µl) were incubated at room temperature (22-23°C) for 30 min in the dark. The Biotinylated-cAMP and donor beads (15 µl) were dispensed into each well to start the competition reaction. After 1 h incubation RT (22-23°C) in the dark the plate was read using EnVision platform to determine the cAMP level (excitation: 680nm; emission:520,620nm). In each experiment:
cAMP standard curve (concentration range from 1x10-6 to 1x10-11 M in log intervals) with a negative control (no cAMP)
a positive control: forskolin 10µM
Antagonism studies were performed stimulating HEK293 cell membrane with PGE2 3nM. The AlphaScreen signal is plotted as a function of log concentration of cAMP and functional IC50 is determined. IC50 value is calculated by linear regression.

Data set [3] can be described thus: Pharmacokinetics after intravenous and oral treatment, plasma LC-MS/MS. The format is in vivo, male Han Wistar rats. To be noted: rat, 1 mg/kg; for AUC(0-t) / AUC(0-inf) / half-life / clearance / Vd / Cmax / Tmax / bioavailability: male, Han Wistar, plasma; for AUC(0-inf): extrapolated to infinity; for half-life / clearance / Vd: extrapolated, indicative only; for clearance: read-out: CLp* (converted); for Vd: read-out: Vss*. As for the experimental part: The pharmacokinetics of compounds E7, E17 and E18, were studied in male Han Wistar rats. The rats were treated intravenously and orally (n=3 for each dose route) with compounds formulated as solutions. The rats were fitted with a jugular cannula for serial sampling. A full profile was acquired from each rat. Plasma extracts were quantitatively analyzed using a specific and sensitive LC-MS/MS bioanalytical method. Inter-individual variations between the three rats in each group were limited (CV for pharmacokinetic parameters was below 50%). […] A range of clearance values were obtained for the different structure, ranging from low to moderate values (from 43 to 250 ml/h). After oral administration, absorption was quite fast with a clear maximum concentration reached by the first sampling time-point of 15 minutes for all compounds.

T1 sequence (P35408 whole entry): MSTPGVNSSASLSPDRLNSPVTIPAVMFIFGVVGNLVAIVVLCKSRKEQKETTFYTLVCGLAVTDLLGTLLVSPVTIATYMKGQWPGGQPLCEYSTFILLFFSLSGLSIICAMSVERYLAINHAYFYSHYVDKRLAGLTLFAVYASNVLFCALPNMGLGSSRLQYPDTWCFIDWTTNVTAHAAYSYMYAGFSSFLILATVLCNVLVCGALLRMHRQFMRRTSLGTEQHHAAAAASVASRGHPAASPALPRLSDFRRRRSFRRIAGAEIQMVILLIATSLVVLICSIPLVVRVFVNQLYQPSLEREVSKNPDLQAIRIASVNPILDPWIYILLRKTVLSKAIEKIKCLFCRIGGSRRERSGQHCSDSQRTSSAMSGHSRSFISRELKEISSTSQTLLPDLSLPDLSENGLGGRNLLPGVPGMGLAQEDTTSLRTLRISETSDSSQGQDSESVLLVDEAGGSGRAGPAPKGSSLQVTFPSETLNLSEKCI

`O=C(O)c1ccc(C2(NC(=O)C3CC(F)(F)CCN3Cc3ccc(C(F)(F)F)cc3)CC2)cc1` (single isomer, unassigned) [Example E18, 4-(1-(4,4-difluoro-1-(4-(trifluoromethyl)benzyl)piperidine-2-carboxamido)cyclopropyl)benzoic acid]: the Ki on hEP4 receptors [1] is 6.31 nM. The IC50 on hEP4 receptors [2] was 11 nM. In data set [3] (iv), the area under the curve AUC(0-t) came out at 1260 ng·h/mL, the AUC(0-inf) is 1390 ng·h/mL, the half-life was 9.3 h and the clearance was 3.17 mL/min. In data set [3] (iv), the Vd is 1.7 L and the “Tlast” value turned out to be 24 h. In addition, in data set [3] (po), the AUC(0-t) was 1170 ng·h/mL, the maximum concentration (Cmax) was found to be 556 ng/mL, the time to peak (Tmax) was determined as 0.5 h and the total exposure AUC(0-inf) is 1200 ng·h/mL. In data set [3] (po), the half-life was 5.1 h, the bioavailability amounted to 93% and the “Tlast” value is listed as 24 h.

With `O=C(O)c1ccc(C2(NC(=O)[C@H]3CC(F)(F)CCN3Cc3ccc(C(F)(F)F)cc3)CC2)cc1` [Example E17, (R)-4-(1-(4,4-difluoro-1-(4-(trifluoromethyl)benzyl)piperidine-2-carboxamido)cyclopropyl)benzoic acid], at hEP4 receptors [1], the Ki is 12.6 nM. In addition, the IC50 on hEP4 receptors [2] is 28 nM. Besides, in data set [3] (iv), the AUC(0-t) worked out at 966 ng·h/mL, the AUC(0-inf) was 1040 ng·h/mL, the half-life was 7.3 h and the clearance was 4.22 mL/min. In data set [3] (iv), the Vd was 1.79 L. Besides, in data set [3] (po), the AUC(0-t) worked out at 823 ng·h/mL, the concentration peaked (Cmax) at 318 ng/mL, the time of peak concentration (Tmax) was found to be 0.5 h and the total exposure AUC(0-inf) is 1080 ng·h/mL. For the same compound, in data set [3] (po), the half-life was 14.1 h, the bioavailability came to 85% and the “Tlast” value worked out at 24 h.
